From US6849394B2, “Compositions comprising reproductive cell media and methods for using such compositions” (Minitube of America, priority 2002, dated 2005) come the findings set out here.

This experiment relates to boar sperm cells. Put plainly: Motility of sperm in boar semen stored at 17° C. in sperm cell medium (Sperm Vison). The format is cell-based. Here is the method: Compositions comprising sperm cell media were prepared prior to collection by reconstituting Androhep Plus™ and the individual components indicated in the experiments below with microfiltered, deionized (Type I) water. Androhep Plus™ was prepared according to the manufacturer's instructions, except that additional components were added in an amount sufficient to give the concentrations indicated below. Each composition was transferred in 75-ml aliquots to 100-ml plastic bottles commercially available from Minitube of America (Verona, Wis.). Semen was collected (modified full ejaculate) from randomly selected, sexually mature boars (n=3) using the gloved hand technique. Following each collection, each ejaculate was evaluated for sperm cell concentration with an SDM5 photometer with a 546 nm filter and the percentage of motile cells was assessed with Sperm Vison™ using a plain glass slide and a 6 μl drop of semen. Aliquots of semen containing 1×10^9 motile spermatozoa from each of the three boars was transferred into each 75-ml aliquot of composition comprising sperm cell medium at the same temperature (36° C.±1° C.) to give a final concentration of 4×10^7 live sperm cells/ml. Following dispersion of the sperm cells in the composition, each sample was tested for percent motility. Samples were maintained in a semen storage unit at 17° C. The samples were gently mixed periodically during storage. […] Each aliquot was pre-warmed for 30 minutes in a dry block heater at 37° C. prior to motility testing. Motility testing was which was performed using the Sperm Vison™ module in the Prism Program and a plain glass slide pre-warmed to 37° C.

In the case of `O=S(=O)([O-])[O-].[Zn+2]` [zinc sulfate], the Mean % motility runs as follows: (Table 6, base Androhep Plus, zinc sulfate 0.05 g/L, day 1) 83.3%; (Table 6, base Androhep Plus, zinc sulfate 0.05 g/L, day 5) 83.7%; (Table 6, base Androhep Plus, zinc sulfate 0.05 g/L, day 10) 87.7%; (Table 6, base Androhep Plus, zinc sulfate 0.05 g/L, day 20) 84.0%; (Table 6, base Androhep Plus, zinc sulfate 0.1 g/L, day 1) 92.0%; (Table 6, base Androhep Plus, zinc sulfate 0.1 g/L, day 5) 93.3%. The Mean % motility is, setting by setting: (Table 6, base Androhep Plus, zinc sulfate 0.1 g/L, day 10) 89.7%; (Table 6, base Androhep Plus, zinc sulfate 0.1 g/L, day 20) 78.3%; (Table 6, base Androhep Plus, zinc sulfate 0.2 g/L, day 1) 94.7%; (Table 6, base Androhep Plus, zinc sulfate 0.2 g/L, day 5) 93.3%; (Table 6, base Androhep Plus, zinc sulfate 0.2 g/L, day 10) 87.7%; (Table 6, base Androhep Plus, zinc sulfate 0.2 g/L, day 20) 87.0%. The Mean % motility (Table 6, base Androhep Plus, zinc sulfate 0.5 g/L, day 1) is recorded as 86.0%; the Mean % motility (Table 6, base Androhep Plus, zinc sulfate 0.5 g/L, day 5) amounted to 85.7%; the Mean % motility (Table 6, base Androhep Plus, zinc sulfate 0.5 g/L, day 10) amounted to 89.3%; the Mean % motility (Table 6, base Androhep Plus, zinc sulfate 0.5 g/L, day 20) was 82.5%; the Mean % motility (Table 6, base Androhep Plus, zinc sulfate 1.0 g/L, day 1) is given as 94.0%; the Mean % motility (Table 6, base Androhep Plus, zinc sulfate 1.0 g/L, day 5) came out at 73.0%. Besides, the Mean % motility runs as follows: (Table 6, base Androhep Plus, zinc sulfate 1.0 g/L, day 10) 87.3%; (Table 6, base Androhep Plus, zinc sulfate 1.0 g/L, day 20) 78.3%.

As for `O=C(CO)[C@@H](O)[C@H](O)[C@H](O)CO` [fructose], the Mean % motility is, setting by setting: (Table 7, Androhep Plus + 20 ng/L TGFβ-1, 0.8 ng/L TGFβ-2, 80 ng/L IGF-1, fructose 3.75 g/L, day 1) 94.9%; (Table 7, Androhep Plus + 20 ng/L TGFβ-1, 0.8 ng/L TGFβ-2, 80 ng/L IGF-1, fructose 3.75 g/L, day 5) 88.7%; (Table 7, Androhep Plus + 20 ng/L TGFβ-1, 0.8 ng/L TGFβ-2, 80 ng/L IGF-1, fructose 3.75 g/L, day 10) 88.7%; (Table 7, Androhep Plus + 20 ng/L TGFβ-1, 0.8 ng/L TGFβ-2, 80 ng/L IGF-1, fructose 3.75 g/L, day 20) 89.8%; (Table 7, Androhep Plus + 20 ng/L TGFβ-1, 0.8 ng/L TGFβ-2, 80 ng/L IGF-1, fructose 7.5 g/L, day 1) 96.9%; (Table 7, Androhep Plus + 20 ng/L TGFβ-1, 0.8 ng/L TGFβ-2, 80 ng/L IGF-1, fructose 7.5 g/L, day 5) 91.0%. Also, the Mean % motility is given as 88.3% (Table 7, Androhep Plus + 20 ng/L TGFβ-1, 0.8 ng/L TGFβ-2, 80 ng/L IGF-1, fructose 7.5 g/L, day 10); 89.8% (Table 7, Androhep Plus + 20 ng/L TGFβ-1, 0.8 ng/L TGFβ-2, 80 ng/L IGF-1, fructose 7.5 g/L, day 20); 94.3% (Table 7, Androhep Plus + 20 ng/L TGFβ-1, 0.8 ng/L TGFβ-2, 80 ng/L IGF-1, fructose 15 g/L, day 1); 85.8% (Table 7, Androhep Plus + 20 ng/L TGFβ-1, 0.8 ng/L TGFβ-2, 80 ng/L IGF-1, fructose 15 g/L, day 5); 89.3% (Table 7, Androhep Plus + 20 ng/L TGFβ-1, 0.8 ng/L TGFβ-2, 80 ng/L IGF-1, fructose 15 g/L, day 10); 89.3% (Table 7, Androhep Plus + 20 ng/L TGFβ-1, 0.8 ng/L TGFβ-2, 80 ng/L IGF-1, fructose 15 g/L, day 20). The Mean % motility by setting is: (Table 7, Androhep Plus + 20 ng/L TGFβ-1, 0.8 ng/L TGFβ-2, 80 ng/L IGF-1, fructose 30 g/L, day 1) 94.7%; (Table 7, Androhep Plus + 20 ng/L TGFβ-1, 0.8 ng/L TGFβ-2, 80 ng/L IGF-1, fructose 30 g/L, day 5) 54.8%; (Table 7, Androhep Plus + 20 ng/L TGFβ-1, 0.8 ng/L TGFβ-2, 80 ng/L IGF-1, fructose 30 g/L, day 10) 37.4%; (Table 7, Androhep Plus + 20 ng/L TGFβ-1, 0.8 ng/L TGFβ-2, 80 ng/L IGF-1, fructose 30 g/L, day 20) 2.2%.

Consider `O[C@H]1[C@H](O)[C@@H](O)[C@H](O)[C@@H](O)[C@H]1O` [inositol], for which the Mean % motility by setting is: (Table 8, Androhep Plus, inositol 0.25 g/L, day 1) 85.7%; (Table 8, Androhep Plus, inositol 0.25 g/L, day 5) 88.0%; (Table 8, Androhep Plus, inositol 0.25 g/L, day 7) 93.3%; (Table 8, Androhep Plus, inositol 0.25 g/L, day 10) 78.3%; (Table 8, Androhep Plus, inositol 0.25 g/L, day 20) 48.0%; (Table 8, Androhep Plus, inositol 0.5 g/L, day 1) 94.7%. The Mean % motility amounted to 93.3% (Table 8, Androhep Plus, inositol 0.5 g/L, day 5); 92.7% (Table 8, Androhep Plus, inositol 0.5 g/L, day 7); 84.3% (Table 8, Androhep Plus, inositol 0.5 g/L, day 10); 70.3% (Table 8, Androhep Plus, inositol 0.5 g/L, day 20).
